Structures can show the parent of a compound that is named as a salt. Where two headings read alike, the source gives them in different places.
What was measured:
[1] = tested on: wild type mice (male C57Bl/6); assay: Novelty Phobia Test in wild type mice; format: in vivo, mouse; details: for pattern of the dose-response function for bouts of nose touching: mouse, in vivo; for Percent Change in Novel Object Number of Nose Touches relative to vehicle control: pre-test time 10 min
Experimental: Animals. Male C57Bl/6 mice (18-30 g body weight; 6-8 weeks of age) were obtained from Slaccas (Shanghai, China) and allowed to acclimate to the animal facility for 7 days. Mice were group housed in plastic cages (no more than 4 animals per cage) on wood shavings with nesting material. All animals had free access to food (M01-F, Slaccas) and water. The animal facility was maintained under artificial lighting between 7:00 AM and 7:00 PM in a controlled ambient temperature of 22-24° C. and relative humidity between 50-60%.
Compound formulation. The test compounds were prepared in a vehicle of DMSO and HP-β-CD, and administered IP or PO. The test compounds or vehicle were administered at various times (10-20 minutes) before the behavioral test described below. Dosing volume was 10 mL/kg.
Testing procedure. The behavioral testing apparatus was a rectangular black Plexiglas, 2-chambered box, with no top or bottom (50 cm long, 26 cm wide and 15 cm tall) and allowed for the simultaneous testing of 2 mice. The box was placed on a laboratory bench. The chambers of the testing box were cleaned and fresh paper chip bedding was added between tests. Mice were brought to the experiment room in their home cages on the day of testing. Behavioral tests were conducted between 10:00 AM and 1:00 PM in dim light. After drug administration, a mouse was placed into a test chamber and allowed to explore for 10 minutes. After this habituation period, a novel object (e.g., a toy ball of 3 cm in diameter with spikes) was introduced to the center of the chamber for 5 minutes. For the entire 15-minute test period, video was recorded for offline analysis with Any-maze Video Tracking software (Stoelting Co., Wood Dale, Ill.). The total distance traveled during the entire 15 minutes and the number of bouts that each mouse touched the novel object during the last 5 minutes were measured.
Statistical analyses. Data are presented as means and SEMs. Data were analyzed using one-way analysis of variance (ANOVA; Prism, GraphPad Software Inc., San Diego, Calif.), followed by the post-hoc Dunnett's test to compare test compound-treated groups with the vehicle control. A p value<0.05 was considered significant.

[2] = biological target: hERG channel (Homo sapiens (Human), UniProt Q12809); assay: hERG channel inhibition, whole cell patch clamp in HEK293 cells; format: cell-based; details: Table 1.3A
Sequence of hERG channel (Q12809 whole entry): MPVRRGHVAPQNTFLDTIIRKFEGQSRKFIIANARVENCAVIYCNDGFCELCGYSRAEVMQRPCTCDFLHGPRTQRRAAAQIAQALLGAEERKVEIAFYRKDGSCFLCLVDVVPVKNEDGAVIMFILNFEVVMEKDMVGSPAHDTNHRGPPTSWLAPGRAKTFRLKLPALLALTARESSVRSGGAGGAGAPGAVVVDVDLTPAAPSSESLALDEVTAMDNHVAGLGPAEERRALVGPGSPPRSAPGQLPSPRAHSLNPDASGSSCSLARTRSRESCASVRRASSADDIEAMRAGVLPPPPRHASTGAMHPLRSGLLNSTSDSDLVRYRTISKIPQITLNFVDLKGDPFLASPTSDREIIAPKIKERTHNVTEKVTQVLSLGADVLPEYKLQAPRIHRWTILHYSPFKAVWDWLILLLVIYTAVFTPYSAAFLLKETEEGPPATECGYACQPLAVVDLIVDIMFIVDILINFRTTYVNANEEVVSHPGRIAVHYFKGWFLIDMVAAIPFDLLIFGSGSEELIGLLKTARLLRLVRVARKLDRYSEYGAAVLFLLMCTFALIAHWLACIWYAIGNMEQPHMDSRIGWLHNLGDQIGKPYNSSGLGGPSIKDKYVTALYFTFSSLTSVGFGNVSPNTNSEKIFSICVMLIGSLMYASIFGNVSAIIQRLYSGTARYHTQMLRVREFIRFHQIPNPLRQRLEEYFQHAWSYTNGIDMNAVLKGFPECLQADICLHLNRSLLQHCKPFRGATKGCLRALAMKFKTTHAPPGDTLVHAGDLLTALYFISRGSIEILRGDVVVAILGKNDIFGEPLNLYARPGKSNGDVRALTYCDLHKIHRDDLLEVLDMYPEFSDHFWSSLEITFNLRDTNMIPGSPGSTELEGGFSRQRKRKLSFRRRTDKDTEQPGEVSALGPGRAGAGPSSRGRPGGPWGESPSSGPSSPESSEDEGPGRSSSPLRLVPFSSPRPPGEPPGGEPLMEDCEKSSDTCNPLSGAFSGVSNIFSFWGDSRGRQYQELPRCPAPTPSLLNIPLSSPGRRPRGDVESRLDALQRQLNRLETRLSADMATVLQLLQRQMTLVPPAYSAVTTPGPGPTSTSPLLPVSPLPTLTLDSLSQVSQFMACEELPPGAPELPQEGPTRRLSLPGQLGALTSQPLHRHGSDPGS

[3] = biological target: human NR1/NR2B (Homo sapiens (Human), UniProt Q05586+Q13224); assay: NR2B antagonist activity: calcium influx (Fluo-4) assay in HEK293 cells; format: cell-based
Sequence of human NR1/NR2B (Q13224 27-1484, other chains not shown): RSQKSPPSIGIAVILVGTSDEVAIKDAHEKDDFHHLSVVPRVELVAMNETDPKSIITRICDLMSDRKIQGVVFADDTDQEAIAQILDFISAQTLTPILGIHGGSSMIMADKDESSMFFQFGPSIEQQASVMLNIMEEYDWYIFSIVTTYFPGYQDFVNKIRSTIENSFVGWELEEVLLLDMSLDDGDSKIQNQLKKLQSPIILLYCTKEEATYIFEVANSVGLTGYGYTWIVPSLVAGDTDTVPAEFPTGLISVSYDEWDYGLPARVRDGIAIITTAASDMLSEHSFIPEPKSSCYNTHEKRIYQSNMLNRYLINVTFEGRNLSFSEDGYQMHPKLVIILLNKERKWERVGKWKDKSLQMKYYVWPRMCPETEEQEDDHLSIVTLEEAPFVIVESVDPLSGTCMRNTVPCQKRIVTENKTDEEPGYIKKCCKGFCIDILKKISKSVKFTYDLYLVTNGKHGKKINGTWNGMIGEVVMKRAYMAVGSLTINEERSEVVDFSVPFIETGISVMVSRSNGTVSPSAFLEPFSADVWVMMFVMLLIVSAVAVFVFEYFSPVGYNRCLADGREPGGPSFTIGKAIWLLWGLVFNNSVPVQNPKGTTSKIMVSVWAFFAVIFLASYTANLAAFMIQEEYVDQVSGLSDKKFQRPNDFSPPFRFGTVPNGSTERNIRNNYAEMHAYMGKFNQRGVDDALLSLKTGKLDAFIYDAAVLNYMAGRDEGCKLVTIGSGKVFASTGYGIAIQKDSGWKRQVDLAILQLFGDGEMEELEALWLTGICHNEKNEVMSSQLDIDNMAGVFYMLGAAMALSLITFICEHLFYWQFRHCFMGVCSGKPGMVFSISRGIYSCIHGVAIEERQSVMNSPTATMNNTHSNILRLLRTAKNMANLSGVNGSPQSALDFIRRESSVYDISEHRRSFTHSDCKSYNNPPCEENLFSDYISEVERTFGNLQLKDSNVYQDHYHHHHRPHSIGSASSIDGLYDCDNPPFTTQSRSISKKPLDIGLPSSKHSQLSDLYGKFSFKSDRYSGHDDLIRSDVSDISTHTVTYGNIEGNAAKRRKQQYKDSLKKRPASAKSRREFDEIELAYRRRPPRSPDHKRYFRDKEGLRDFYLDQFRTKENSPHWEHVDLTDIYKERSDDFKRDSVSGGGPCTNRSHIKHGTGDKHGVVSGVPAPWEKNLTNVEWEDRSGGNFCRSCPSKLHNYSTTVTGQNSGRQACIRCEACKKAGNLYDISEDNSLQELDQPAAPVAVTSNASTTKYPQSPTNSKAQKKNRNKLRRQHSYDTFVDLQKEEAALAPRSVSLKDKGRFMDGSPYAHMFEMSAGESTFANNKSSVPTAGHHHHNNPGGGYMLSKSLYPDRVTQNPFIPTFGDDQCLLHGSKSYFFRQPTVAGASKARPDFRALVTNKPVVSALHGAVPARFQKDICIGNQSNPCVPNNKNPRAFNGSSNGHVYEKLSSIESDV
Experimental: Activation of the NR2A or NR2B subtype of NMDA receptor with glutamate as an agonist and glycine co-agonist on these cells results in calcium influx, which can be monitored with fluorescent indicator Fluo-4.
For experiments, the cells were seeded onto poly-D-lysine-coated 96-well black plates with clear bottom (Corning) at a density of ˜50,000 cells/well. After overnight culture, the growth medium was removed from the wells and the cells were incubated at 37° C. for 60 minutes in Hanks buffer containing 4 μM fluo-4-AM (Invitrogen) and 0.1% bovine serum albumin (BSA). After dye-loading, the cells were washed three times with Hanks buffer and incubated for 10 minutes at room temperature with various concentrations of test compounds prepared in Hanks buffer with 0.1% BSA. The cell plates were placed onto an FDSS Cell fluorescence reader (Hamamatsu). After 20 seconds of reading background fluorescence, agonist glutamate at final 100 µM and co-agonist glycine at final 50 μM were added to the cells to activate the receptor, and the resulting fluorescence changes were recorded and quantified. Based on the changes in fluorescence intensity, the pharmacological effect of test compounds was analyzed and the IC50 values derived from a non-linear least squares fitting of the concentration-dependent response to a standard logistic equation using Prism (Graphpad Software, Inc.): Amplitude=Max Amplitude/(1+(IC50/[antagonist])^n).

[4] = biological target: native rat brain NR2B receptors (Rattus norvegicus (Rat), UniProt P35439+Q00960); assay: NR2B radioligand binding assay in rat brain using [3H] (E)-N1-(2-methoxybenzyl)-cinnamidine
Sequence of native rat brain NR2B receptors (Q00960 27-1482, other chains not shown): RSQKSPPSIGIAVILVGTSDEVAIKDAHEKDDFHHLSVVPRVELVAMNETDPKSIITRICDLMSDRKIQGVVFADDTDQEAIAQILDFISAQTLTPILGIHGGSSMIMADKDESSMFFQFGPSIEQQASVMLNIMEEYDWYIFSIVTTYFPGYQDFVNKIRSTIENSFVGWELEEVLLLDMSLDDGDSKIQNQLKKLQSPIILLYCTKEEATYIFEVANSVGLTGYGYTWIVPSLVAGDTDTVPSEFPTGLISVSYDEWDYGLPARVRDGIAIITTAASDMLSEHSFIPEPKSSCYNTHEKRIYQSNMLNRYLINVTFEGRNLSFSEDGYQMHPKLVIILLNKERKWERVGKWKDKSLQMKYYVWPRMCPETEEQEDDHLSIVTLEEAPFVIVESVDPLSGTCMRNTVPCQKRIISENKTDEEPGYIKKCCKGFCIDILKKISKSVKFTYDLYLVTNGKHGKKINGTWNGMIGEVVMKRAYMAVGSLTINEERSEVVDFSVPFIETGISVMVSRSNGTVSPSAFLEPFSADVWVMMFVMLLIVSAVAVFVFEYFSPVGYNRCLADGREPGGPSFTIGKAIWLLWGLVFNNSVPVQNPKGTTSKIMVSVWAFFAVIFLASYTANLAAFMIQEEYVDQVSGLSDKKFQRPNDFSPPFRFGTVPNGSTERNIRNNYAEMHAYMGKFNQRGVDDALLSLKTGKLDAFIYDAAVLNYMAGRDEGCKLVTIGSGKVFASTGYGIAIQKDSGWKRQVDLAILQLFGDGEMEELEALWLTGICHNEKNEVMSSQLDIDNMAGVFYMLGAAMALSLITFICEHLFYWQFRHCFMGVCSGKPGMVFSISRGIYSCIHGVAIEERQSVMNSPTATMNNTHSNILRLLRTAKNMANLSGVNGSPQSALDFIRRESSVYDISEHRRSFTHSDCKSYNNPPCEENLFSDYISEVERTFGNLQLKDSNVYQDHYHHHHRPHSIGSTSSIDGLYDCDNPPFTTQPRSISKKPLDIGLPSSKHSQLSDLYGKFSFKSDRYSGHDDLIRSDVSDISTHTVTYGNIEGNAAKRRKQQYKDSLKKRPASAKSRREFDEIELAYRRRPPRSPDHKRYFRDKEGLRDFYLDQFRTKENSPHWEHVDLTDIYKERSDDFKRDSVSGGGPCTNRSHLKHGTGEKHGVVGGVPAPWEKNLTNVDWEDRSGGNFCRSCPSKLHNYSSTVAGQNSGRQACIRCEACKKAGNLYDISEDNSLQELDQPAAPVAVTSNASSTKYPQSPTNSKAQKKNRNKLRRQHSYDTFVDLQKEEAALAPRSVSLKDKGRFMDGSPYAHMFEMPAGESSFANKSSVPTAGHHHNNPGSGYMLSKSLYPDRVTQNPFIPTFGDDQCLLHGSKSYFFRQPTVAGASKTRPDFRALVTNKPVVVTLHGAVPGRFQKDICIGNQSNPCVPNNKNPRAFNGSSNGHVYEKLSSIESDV
Experimental: This example describes an NR2B receptor binding assay in rat brain using [^3H] […] The binding assay method was adapted from a previously described cellular human NR1a/NR2B cloned receptor assay (Kiss et al. Neurochem. Internatl. 2005, 46:453-464) to rat brain tissue. This assay serves as a selective measure of NR2B receptor binding activity in native rat brain receptors. Briefly, the brains of male Wistar rats were homogenized (Polytron) before centrifugation at 40,000×g for 15 minutes at 4° C. After 2 washes, the final pellet was homogenized and stored at −80° C. The protein concentration was determined by Bradford assay. [^3H] […] Non-specific binding was assessed in the presence of excess (10 μM) (E)-N1-(2-nethoxybenzyl)-cinnamidine.
Test compounds were solubilized at 10 mM in DMSO. Then the dilutions were performed with a constant solvent concentration (1% DMSO) in the assay. After incubation for 4.5 hours at room temperature, the assays were filtered on GF/3 filters pretreated with 0.3% (v/v) polyethylenimine (PEI) with a Packard system. The experiment was performed in duplicate (n=2).

[5] = tested on: wild type mice (male NMRI); assay: Marble Burying Test in wild type mice; format: in vivo, mouse; details: for change in vivo at 3 mg/kg / change in vivo at 10 mg/kg / change in vivo at 30 mg/kg: Mus musculus, ip, read-out: Percent Change in marbles buried relative to vehicle
Experimental: Animals. Male NMRI mice (20-30 g body weight) were obtained from Janvier Labs (Le Genest-Saint Isle, France) and allowed to acclimate to the animal facility for at least 5 days. Twelve mice were studied per treatment group.
Compound formulation. The test compounds were prepared in a vehicle of 0.5% DMSO and 4% HP-β-CD, and administered orally (PO) or IP. The test compounds or vehicle were administered 20 minutes before the behavioral test described below. Clobazam (8 mg/kg IP), administered 30 minutes before the test, was used as the positive reference compound.
Clobazam was dispersed in 0.2% hydroxypropylmethylcellulose (HPMC) in physiological saline. Dosing volume was 10 mL/kg.
Testing procedure. The Marble Burying Test was conducted as previously described by Broekkamp et al. (Eur. J. Pharmacol. 1986, 126:223-229). Mice exposed to small novel objects (marbles) will bury them in the sawdust floor covering. Anxiolytics decrease the number of marbles buried at non-sedating doses. Mice were individually placed in transparent plastic cages (33×21×18 cm) with 5 cm of sawdust on the floor and 25 marbles grouped in the center of the cage. The cage was covered with an inverted plastic cage. Each test cage, together with the marbles, was impregnated with mouse odor before-hand by leaving 10 mice in the cage for 15 minutes. These mice then played no further role in the experiment. The number of marbles covered by sawdust (⅔ or more) was counted at the end of the 30-minute test. The test was performed blind (compounds versus vehicle).
Statistical analyses. Data were analyzed by comparing test compound-treated groups with the vehicle control group using the Kruskal-Wallis test followed by post-hoc Mann-Whitney U tests. Data comparing the reference compound with the vehicle were analyzed using the Mann-Whitney U test. A p value<0.05 was considered significant.

[6] = Table 1.1A, read-out: NR2B IC50
[7] = Table 1.3A, read-out: hNR2B IC50
[8] = rat brain NR2B receptors, mean of replicates, read-out: Arithmetic Mean Ki
[9] = read-out: hNR2B IC50, Table 1.3A

SMILES: FC(F)(F)c1ccc(C(F)(F)CN2CCC(Nc3ncnc4[nH]ccc34)CC2)cc1 [C-178^A′]
- change in vivo at 0.3 mg/kg ([1]; Mus musculus, ip, 20 min, IP, 0.3 mg/kg, pre-test time 20 min, read-out: Percent Change in Novel Object Number of Nose Touches relative to vehicle control): -4.12%
- change in vivo at 1 mg/kg ([1]; Mus musculus, ip, 20 min, IP, 1 mg/kg, pre-test time 20 min, read-out: Percent Change in Novel Object Number of Nose Touches relative to vehicle control): 50.3%
- change in vivo at 3 mg/kg ([1]; Mus musculus, ip, 20 min, IP, 3 mg/kg, pre-test time 20 min, read-out: Percent Change in Novel Object Number of Nose Touches relative to vehicle control): 110%
- pattern of the dose-response function for bouts of nose touching [1]: dose-dependent increases
- IC50 [2]: 1600 nM
- IC50 [3, 6]: 64 nM
- IC50 [3, 7]: 64 nM
- IC50 ([3]; Table 1.4A, read-out: NR2B IC50): 64 nM

SMILES: O=C(OCc1ccc(C(F)F)cc1)N1CC[C@H](CNc2ccncn2)C(F)(F)C1 [E1-37.6^B′, (R)-4-(difluoromethyl)benzyl 3,3-difluoro-4-((pyrimidin-4-ylamino)methyl)piperidine-1-carboxylate hydrochloride]
- Ki [4, 8]: 3.9 nM

SMILES: Fc1ccc(C(F)(F)CN2CCC(Nc3ncnc4[nH]ccc34)CC2)cc1 [C-175^A′]
- Percent Change in Novel Object Number of Nose Touches relative to vehicle control ([1]; IP, 3 mg/kg): 25.1%
- Percent Change in Novel Object Number of Nose Touches relative to vehicle control ([1]; IP, 10 mg/kg): 139%
- Percent Change in Novel Object Number of Nose Touches relative to vehicle control ([1]; IP, 30 mg/kg): −88.1%
- pattern of the dose-response function for bouts of nose touching [1]: inverted U-shaped dose-response function
- IC50 [3]: 22 nM
- IC50 ([3]; read-out: NR2B IC50, Table 1.4A): 22 nM
- IC50 [3, 9]: 22 nM

SMILES: Cc1ccc(C(F)(F)CN2CCC(Nc3ncnc4[nH]ccc34)CC2)cn1 [C-128^A′]
- IC50 [3]: 89 nM
- IC50 [3, 9]: 89 nM

SMILES: Cc1cnc(NC[C@H]2CCN(C(=O)OCc3ccc(Cl)cc3)CC2(F)F)cn1 [E1-21.33^B′, (R)-4-chlorobenzyl 3,3-difluoro-4-(((5-methylpyrazin-2-yl)amino)methyl)piperidine-1-carboxylate mesylate]
- Ki [4, 8]: 11 nM

SMILES: FC(F)c1ccc(C(F)(F)CN2CCC(Nc3ncnc4[nH]ccc34)CC2)nc1 [C-6^A′]
- change in vivo at 3 mg/kg [5]: -23%
- change in vivo at 10 mg/kg [5]: -62%
- change in vivo at 30 mg/kg [5]: -100%
- IC50 [2]: 6900 nM
- IC50 [3, 6]: 31 nM
- IC50 [3, 7]: 31 nM

SMILES: Cc1cnc(C(F)(F)CN2CCC(Nc3ncnc4[nH]ccc34)CC2)c(F)c1 [C-17^A′]
- IC50 [3]: 44 nM

SMILES: O=C(OCc1ccc(F)cc1)N1CC[C@H](CNc2ccncc2F)C(F)(F)C1 [E1-38.10^B′, (R)-4-fluorobenzyl 3,3-difluoro-4-(((3-fluoropyridin-4-yl)amino)methyl)piperidine-1-carboxylate mesylate]
- Ki [4, 8]: 3.8 nM

SMILES: FC(F)Oc1ccc(C(F)(F)CN2CCC(Nc3ncnc4[nH]ccc34)CC2)nc1 [C-12^A′]
- change in vivo at 3 mg/kg [5]: -14%
- change in vivo at 10 mg/kg [5]: -56%
- change in vivo at 30 mg/kg [5]: -100%
- bouts of nose touching of the novel object, efficacy ([1]; IP (C-11 also PO)): not efficacious

SMILES: Cc1cnc(C(F)(F)CN2CCC(Nc3ncnc4[nH]ccc34)CC2)cn1 [C-230^A′]
- IC50 [3]: 88 nM
- IC50 [3, 9]: 88 nM

SMILES: CN1C(=O)CC(=O)N(c2ccccc2)c2cc(Cl)ccc21 [clobazam, Clobazam, reference compound]
- number of buried marbles, positive reference ([5]; 8 mg/kg IP, 30 minutes before the test, data not shown): significantly reduced the number of buried marbles

SMILES: COc1ccccc1CNC(=N)/C=C/c1ccccc1 [(E)-N1-(2-methoxybenzyl)-cinnamidine, reference compound]
- Ki ([4]; high affinity site, rat brain membranes, read-out: inhibition constant (Ki), mean): 0.22 nM

SMILES: Cc1ccc(C(F)(F)CN2CCC(Nc3ncnc4[nH]ccc34)CC2)cc1 [C-177^A′]
- IC50 [3]: 27 nM

SMILES: FCc1ccc(C(F)(F)CN2CCC(Nc3ncnc4[nH]ccc34)CC2)nc1 [C-7^A′]
- IC50 [3]: 14 nM

SMILES: Cc1ccc(COC(=O)N2CC[C@H](CNc3cccc(C)n3)C(F)(F)C2)cc1 [E1-23.32^B′, (+)-(R)-4-methylbenzyl 3,3-difluoro-4-(((6-methylpyridin-2-yl)amino)methyl)piperidine-1-carboxylate]
- Ki [4, 8]: 31 nM

SMILES: Cc1cnc(NC[C@H]2CCN(C(=O)OCc3ccc(F)cc3)CC2(F)F)cn1 [E1-21.34^B′, (R)-4-fluorobenzyl 3,3-difluoro-4-(((5-methylpyrazin-2-yl)amino)methyl)piperidine-1-carboxylate mesylate]
- Ki [4, 8]: 16 nM

SMILES: Fc1cc(Cl)cnc1C(F)(F)CN1CCC(Nc2ncnc3[nH]ccc23)CC1 [C-16^A′]
- IC50 [2]: 60000 nM
- IC50 [3]: 47 nM
- IC50 [3, 9]: 47 nM

SMILES: Cc1ccc(C(F)(F)CN2CCC(Nc3ncnc4[nH]ccc34)CC2)nc1 [C-4^A′]
- IC50 [3]: 35 nM
- IC50 [3, 9]: 35 nM

SMILES: Fc1ccc(C(F)(F)CN2CCC(Nc3ncnc4[nH]ccc34)CC2)nc1 [C-2^A′]
- IC50 [3]: 124 nM

SMILES: O=C(OCc1ccc(C(F)F)cc1)N1CC[C@H](CNc2cccnn2)C(F)(F)C1 [E1-24.6^B′, (R)-4-(difluoromethyl)benzyl 3,3-difluoro-4-((pyridazin-3-ylamino)methyl)piperidine-1-carboxylate hydrochloride]
- Ki [4, 8]: 4.7 nM

SMILES: FC(F)(CN1CCC(Nc2ncnc3[nH]ccc23)CC1)c1ccc(Cl)cc1 [C-176^A′]
- IC50 [3]: 26 nM

SMILES: Fc1cc(C(F)(F)F)cnc1C(F)(F)CN1CCC(Nc2ncnc3[nH]ccc23)CC1 [C-18^A′]
- IC50 [3, 6]: 84 nM

SMILES: Cc1ccc(C(F)(F)CN2CCC(N(C)c3ncnc4[nH]ccc34)CC2)nc1 [C-47^A′]
- IC50 [3, 6]: 140 nM

Reference: US11752155B2, “Treatment of autism spectrum disorders, obsessive-compulsive disorder and anxiety disorders” (Rugen Holdings (Cayman) Limited, priority 2016, dated 2023)
